Patent publication US20070004660A1, “Synergistic Modulation of Flt3 Kinase Using Alkylquinolines and Alkylquinazolines” (priority 2005, published 2007)

Experiments:
[1] = test system: patients with relapsed and refractory AML; details: cited from earlier work
Baf3-FLT3 cells = assay: Cell proliferation assay, single agents and FTI/FLT3 inhibitor combinations, Baf3-FLT3; format: cell-based, murine; details: with single sub-IC50 dose of FLT3 inhibitor Compound A, 100 nM
Protocol: (§1) The cell lines that were tested included those that are dependent on FLT3ITD mutant activity for growth (MV4-11 and Baf3-FLT3ITD), FLT3wt activity for growth (Baf3FLT3) and those that grow independent of FLT3 activity (THP-1). […] Baf3-FLT3 and Baf3-FLT3ITD cell lines were obtained from Dr. Michael Henrich and the Oregon Health Sciences University. The Baf3 FLT3 cell lines were created by stable transfection of parental Baf3 cells (a murine B cell lymphoma line dependent on the cytokine IL-3 for growth) with either wild-type FLT3 or FLT3 containing the ITD insertion in the juxatamembrane domain of the receptor resulting in its constitutive activation. […]
(§2) To statistically evaluate the synergy of a FLT3 inhibitor and an FTI in FLT3 dependent cell lines, dosing combinations were evaluated by the method of Chou and Talalay. See Chou T C, Talalay P. (1984) “Quantitative analysis of dose-effect relationships: the combined effects of multiple drugs or enzyme inhibitors.” Adv Enzyme Regul. […] Using this method, multiple FTI and FLT3 combinations were evaluated. […]
(§3) Cell proliferation assay for MV4-11, Baf3-ITD, Baf3-FLT3 and THP-1 cells. […] Total cell growth is quantified as the difference in luminescent counts (relative light units, RLU) of cell number at Day 0 compared to total cell number at Day 3 (72 hours of growth and/or compound treatment). […]

MV-4-11 tumor xenografts = test system: MV-4-11 tumor xenografts
Text: Dosing was continued for sixteen consecutive days.
Values represent the mean (±sem) of 10 mice per treatment group.

MV4-11 AML cells = assay: Cell proliferation assay, single agents and FTI/FLT3 inhibitor combinations, MV4-11; format: cell-based, human
Protocol: Dose responses for the individual compounds alone were determined for each cell line using a standard 72-hour cell proliferation assay (see FIGS. 6.1-6.8). The standard chemotherapeutic agent Cytarabine was used as a control cytotoxic agent in all experiments. […] The FLT3 inhibitors, Compounds A, B, C, D, E, F G and H individually have good potency (sub-micromolar) for the inhibition of FLT3 driven proliferation (compared to the first line cytotoxic agent Cytarabine and Tipifarnib) in cells that depend on FLT3 for growth. Each of these chemically distinct compounds alone has potential for the treatment of disorders related to FLT3, such as FLT3 positive AML. […] The FLT3 inhibitors tested had no effect on THP-1 proliferation. […] (See FIGS. 10.1-10.8 and Tables 1-3, hereafter.)
To statistically evaluate the synergy of a FLT3 inhibitor and an FTI in FLT3 dependent cell lines, dosing combinations were evaluated by the method of Chou and Talalay. See Chou T C, Talalay P. (1984) “Quantitative analysis of dose-effect relationships: the combined effects of multiple drugs or enzyme inhibitors.” Adv Enzyme Regul. 22:27-55. […] Using this method, multiple FTI and FLT3 combinations were evaluated. […]
Cell proliferation assay for MV4-11, Baf3-ITD, Baf3-FLT3 and THP-1 cells. […] Total cell growth is quantified as the difference in luminescent counts (relative light units, RLU) of cell number at Day 0 compared to total cell number at Day 3 (72 hours of growth and/or compound treatment). One hundred percent inhibition of growth is defined as an RLU equivalent to the Day 0 reading. […]
Combination Index Analysis. To determine growth inhibition synergy of a FTI and FLT3 inhibitor combination based on the method of Chou and Talalay (Chou and Talalay. See Chou T C, Talalay P. (1984) “Quantitative analysis of dose-effect relationships: the combined effects of multiple drugs or enzyme inhibitors.” Adv Enzyme Regul. 22:27-55. ), fixed ratio combination dosing with isobolar statistical analysis was performed. […]

Baf3-ITD cells = assay: Cell proliferation assay, single agents and FTI/FLT3 inhibitor combinations, Baf3-ITD; format: cell-based, murine; details: with single sub-IC50 dose of FLT3 inhibitor Compound A, 50 nM
Protocol: as §1, §2, §3

[2] = multicenter Phase II trial, relapsed AML

SMILES: Cn1cncc1C(N)(c1ccc(Cl)cc1)c1ccc2c(c1)c(-c1cccc(Cl)c1)cc(=O)n2C (single isomer, unassigned; (+)) [Tipifarnib, (+)-6-[amino(4-chlorophenyl)(1-methyl-1H-imidazol-5-yl)methyl]-4-(3-chlorophenyl)-1-methyl-2(1H)-quinolinone]
- >50% reduction in bone marrow blasts [1, 2]: 31 of 50
- complete responses (bone marrow blasts <5%) [1, 2]: 17 of 50
- response rate ([1]; patients with relapsed and refractory AML): ~30%
- increase in potency of Tipifarnib (Baf3-FLT3 cells): more than 3 fold
- effect on tumor growth (MV-4-11 tumor xenografts; 50 mg/kg po single agent, 16 days): ineffective
- overt toxicity (MV-4-11 tumor xenografts; 16-day treatment, either agent alone or in combination): No overt toxicity
- potency for inhibition of proliferation, single agent (MV4-11 AML cells; 72-hour assay, cells that depend on FLT3 for growth (Tipifarnib: depending on the cell type)): high nanomolar to high picomolar range
- increase in potency of Tipifarnib (MV4-11 AML cells; with single sub-IC50 dose of FLT3 inhibitor Compound A, 50 nM): more than 3 fold
- increase in potency of Tipifarnib (Baf3-ITD cells): more than 3 fold
